In patent publication US12630528B2, “Amino aryl derivative useful as diacylglycerol acyltransferase 2 inhibitor and use thereof” (LG CHEM, LTD., priority 2019, dated 2026):

Biological target: T1, human DGAT2 (Homo sapiens, UniProt Q96PD7)
T1 construct: FLAG (DYKDDDDK); made in house; host or cells: Sf-21 insect cells (BacPAK baculovirus system); membrane fraction used
T1 sequence (Q96PD7 1-388): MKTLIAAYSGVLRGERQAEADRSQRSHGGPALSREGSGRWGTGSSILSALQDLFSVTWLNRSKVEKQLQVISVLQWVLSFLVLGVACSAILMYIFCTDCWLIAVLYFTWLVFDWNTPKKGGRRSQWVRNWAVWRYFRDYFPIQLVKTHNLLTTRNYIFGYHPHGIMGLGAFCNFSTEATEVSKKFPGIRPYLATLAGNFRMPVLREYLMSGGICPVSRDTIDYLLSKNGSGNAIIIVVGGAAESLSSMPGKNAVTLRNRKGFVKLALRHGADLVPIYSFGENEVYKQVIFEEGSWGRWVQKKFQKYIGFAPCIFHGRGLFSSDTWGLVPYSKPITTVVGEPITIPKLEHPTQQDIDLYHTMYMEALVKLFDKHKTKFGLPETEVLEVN
Test: DGAT2 enzyme activity inhibition, Phospholipid FlashPlate SPA
Assay type: biochemical
Settings: recombinant human DGAT2 membrane protein from Sf-21 cells; inhibition of [14C]-TG production; 37° C.
Experimental: In order to prepare the pBacPAK9-DGAT2, which is DGAT2 expression vector, the human DGAT2 gene amplified by polymerase chain reaction (PCR) was cloned into the EcoR1 and Xho1 sites of the pBacPAK9 (clonctech) vector. The nucleotide sequence of the primers used in PCR was the forward primer 5′ […] (SEQ. ID. NO: 2). The composition of the reaction solution was to contain 50 ng of cDNA clone (OriGene), 200 μM of dATP, dCTP, dTTP, dGTP, 200 nM of each primer, 1 unit of Tag DNA Polymerase (Toyobo), 1×PCR buffer, and the final volume was adjusted to 20 μl. The reaction conditions were denatured at 95° C. for 5 minutes, followed by 30 times of 94° C. for 20 seconds, 60° C. for 20 seconds, and 72° C. for 90 seconds, followed by further reaction at 72° C. for 7 minutes.
Recombinant human DGAT2 protein was expressed in Sf-21 cells, which are insect cells, by using the BacPack baculovirus expression system (Clontech). The brief manufacturing process is as follows. First, the pBacPAK9-DGAT2 expression vector was transfected with BacPAK6 virus DNA (Bsu36I digest) into sf21 cells using Bacfectin to prepare a recombinant DGAT2 expressing baculovirus. The thus prepared baculovirus was infected with Sf-21 cells at 10 MOI (multiplicity of infection), and after 72 hours, infected insect cells were collected and membrane proteins were isolated. For membrane protein separation, the cell pellet was dissolved in a sucrose solution containing 250 mM sucrose, 10 mM Tris (pH 7.4), and 1 mM ethylenediamine-tetraacetic acid (EDTA), and then homogenized by using a dounce homogenizer, and the supernatant was taken by centrifuging at 600×g for 15 minutes, and centrifuged at 100,000×g for 1 hour to discard the supernatant, and the remaining pellet was resuspended in 20 mM HEPES buffer (pH 7.4). The prepared DGAT2 overexpressing membrane protein was dispensed in 100 μl and stored at −80° C. until use. Protein concentration was quantified by using the BCA Protein Assay Kit (Thermo Scientific).
In vitro DGAT2 analysis was performed using a Phospholipid Flash Plate (PerkinElmer) based on the principle of SPA (Scintilation Proximity Assay). First, DGAT2 inhibition compounds serially diluted 5 times from 3 nM to 10 μM (final concentration, 1% DMSO) were mixed in a buffer solution containing 2 μg DGAT2-membrane protein and 20 mM HEPES, 20 mM MgCl2, 1 mg/mL BSA, 50 μM 1,2 sn-oleoyl glycerol (Sigma), put in a 96-well flash plate (FlashPlate) and reacted at 37° C. for 20 minutes, and then 1 μM [14C] ole oil CoA (PerkinElmer, NEC651050UC) was added to be a final volume of 100 μL and further reacted at 37° C. for 15 minutes. After the enzymatic reaction was completed, 100 μL of isopropanol was added, the plate was sealed with a film, and the plate was shaken slowly in a plate shaker. The next day, the amplified scintillation signal (cpm) in Topcounter (Packard) was measured to measure the degree of production of [14C]-labeled triacyl glycerol (TG) as a reaction product. The measured value when the compound was not treated was used as a positive control, and the measured value of the compound treated group was calculated as a relative % to measure the inhibition effect of the compound on TG production.

| IC50 [µM] | SMILES |
| --- | --- |
| 3.1 | CCOc1ccccc1O[C@@H]1CCCN(c2cncc(Nc3cc(-c4ccc(C(C)(C)C(=O)O)cc4)ccn3)n2)C1 [Example 43, (R)-2-(4-(2-((6-(3-(2-ethoxyphenoxy)piperidin-1-yl)pyrazin-2-yl)amino)pyridin-4-yl)phenyl)-2-methylpropanoic Acid] |
| 0.86 | CCOc1ccccc1O[C@@H]1CCCN(c2cncc(Nc3cccc(N4CCC[C@@H](C(=O)O)C4)n3)n2)C1 [Example 55, (R)-1-(6-((6-((R)-3-(2-ethoxyphenoxy)piperidin-1-yl)pyrazin-2-yl)amino)pyridin-2-yl)piperidine-3-carboxylic Acid] |
| 0.15 | CCOc1ccccc1O[C@@H]1CCCN(c2cncc(Nc3nccc(-c4cccc(CC(=O)O)c4)n3)n2)C1 [Example 140, (R)-2-(3-(2-((6-(3-(2-ethoxyphenoxy)piperidin-1-yl)pyrazin-2-yl)amino)pyrimidin-4-yl)phenyl)acetic Acid] |
| 0.31 | CCOc1ccccc1O[C@@H]1CCCN(c2cncc(Nc3cccc(-c4cccc(OC(C)(C)C(=O)O)c4)n3)n2)C1 [Example 80, (R)-2-(3-(6-((6-(3-(2-ethoxyphenoxy)piperidin-1-yl)pyrazin-2-yl)amino)pyridin-2-yl)phenoxy)-2-methylpropanoic Acid] |
| 1.8 | CCOc1ccccc1O[C@@H]1CCCN(c2cncc(Nc3ccc(-c4cccc(CC(C)(C)C(=O)O)c4)nc3)n2)C1 [Example 48, (R)-3-(3-(5-((6-(3-(2-ethoxyphenoxy)piperidin-1-yl)pyrazin-2-yl)amino)pyridin-2-yl)phenyl)-2,2-dimethylpropanoic Acid] |
| 0.49 | CCOc1ccccc1O[C@@H]1CCCN(c2cncc(Nc3ccnc(-c4ccc(OC(C)(C)C(=O)O)cc4)n3)n2)C1 [Example 178, (R)-2-(4-(4-((6-(3-(2-ethoxyphenoxy)piperidin-1-yl)pyrazin-2-yl)amino)pyrimidin-2-yl)phenoxy)-2-methylpropanoic Acid] |
| > 10 | CCOc1ccccc1O[C@@H]1CCCN(c2ncc(C(F)(F)F)c(Nc3cccc(-c4cccc(CC(C)(C)C(=O)O)c4)n3)n2)C1 [Example 70, (R)-3-(3-(6-((2-(3-(2-ethoxyphenoxy)piperidin-1-yl)-5-(trifluoromethyl)pyrimidin-4-yl)amino)pyridin-2-yl)phenyl)-2,2-dimethylpropanoic Acid] |
| 6.2 | CCOc1ccccc1O[C@@H]1CCCN(c2cncc(Nc3ncc(C(=O)O)s3)n2)C1 [Example 1, (R)-2-((6-(3-(2-ethoxyphenoxy)piperidin-1-yl)pyrazin-2-yl)amino)thiazole-5-carboxylic Acid] |
| 0.89 | CCOc1ccccc1O[C@@H]1CCCN(c2cncc(Nc3cccc(-c4ccc(NCC(=O)O)cc4)n3)n2)C1 [Example 73, (R)-(4-(6-((6-(3-(2-ethoxyphenoxy)piperidin-1-yl)pyrazin-2-yl)amino)pyridin-2-yl)phenyl)glycine] |
| 0.33 | CCOc1ccccc1O[C@@H]1CCCN(c2cncc(Nc3cccc(N4CCC(CC(=O)O)CC4)n3)n2)C1 [Example 57, (R)-2-(1-(6-((6-(3-(2-ethoxyphenoxy)piperidin-1-yl)pyrazin-2-yl)amino)pyridin-2-yl)piperidin-4-yl)acetic Acid] |
| 0.087 | CCOc1cccnc1O[C@@H]1CCCN(c2cncc(Nc3cccc(Oc4cccc(CC(=O)O)c4)n3)n2)C1 [Example 96, (R)-2-(3-((6-((6-(3-((3-ethoxypyridin-2-yl)oxy)piperidin-1-yl)pyrazin-2-yl)amino)pyridin-2-yl)oxy)phenyl)acetic Acid] |
| > 10 | CCOc1ccccc1O[C@@H]1CCCN(c2cncc(Nc3ccc(CCC(=O)O)cn3)n2)C1 [Example 38, (R)-3-(6-((6-(3-(2-ethoxyphenoxy)piperidin-1-yl)pyrazin-2-yl)amino)pyridin-3-yl)propanoic Acid] |
| 1.2 | CCOc1ccccc1O[C@@H]1CCCN(c2ccnc(Nc3nccc(-c4ccc(CC(C)(C)C(=O)O)cc4)n3)n2)C1 [Example 156, (R)-3-(4-(2-((4-(3-(2-ethoxyphenoxy)piperidin-1-yl)pyrimidin-2-yl)amino)pyrimidin-4-yl)phenyl)-2,2-dimethylpropanoic Acid] |
| 0.43 | CCOc1ccccc1O[C@@H]1CCCN(c2cncc(Nc3nc(-c4cccc(CC(C)(C)C(=O)O)c4)ccc3F)n2)C1 [Example 100, (R)-3-(3-(6-((6-(3-(2-ethoxyphenoxy)piperidin-1-yl)pyrazin-2-yl)amino)-5-fluoropyridin-2-yl)phenyl)-2,2-dimethylpropanoic Acid] |
| 0.51 | CCOc1ccccc1O[C@@H]1CCCN(c2cncc(Nc3cccc(N4CCC(C)(C(=O)O)C4)n3)n2)C1 (stereo partly drawn) [Example 53, 1-(6-((6-((R)-3-(2-ethoxyphenoxy)piperidin-1-yl)pyrazin-2-yl)amino)pyridin-2-yl)-3-methylpyrrolidine-3-carboxylic Acid] |
| 0.3 | CCOc1ccccc1O[C@@H]1CCCN(c2ccnc(Nc3cccc(-c4ccc(NCC(=O)O)cc4)n3)n2)C1 [Example 76] |
| 0.39 | CCOc1ccccc1O[C@@H]1CCCN(c2cncc(Nc3nccc(-c4cccc(CC(C)(C)C(=O)O)c4)n3)n2)C1 [Example 146, (R)-3-(3-(2-((6-(3-(2-ethoxyphenoxy)piperidin-1-yl)pyrazin-2-yl)amino)pyrimidin-4-yl)phenyl)-2,2-dimethylpropanoic Acid] |
| 2.1 | CCOc1ccccc1O[C@@H]1CCCN(c2cncc(Nc3nccc(N4CCC[C@@H](CCC(=O)O)C4)n3)n2)C1 [Example 130, 3-((S)-1-(2-((6-((R)-3-(2-ethoxyphenoxy)piperidin-1-yl)pyrazin-2-yl)amino)pyrimidin-4-yl)piperidin-3-yl)propanoic Acid] |
| 1.1 | CCOc1cccnc1O[C@@H]1CCCN(c2cncc(Nc3ccnc(-c4cccc(OC(C)(C)C(=O)O)c4)n3)n2)C1 [Example 175, (R)-2-(3-(4-((6-(3-((3-ethoxypyridin-2-yl)oxy)piperidin-1-yl)pyrazin-2-yl)amino)pyrimidin-2-yl)phenoxy)-2-methylpropanoic Acid] |
| 0.44 | CCOc1ccccc1O[C@@H]1CCCN(c2cncc(Nc3cc(C(C)(C)C(=O)O)ccn3)n2)C1 [Example 35, (R)-2-(2-((6-(3-(2-ethoxyphenoxy)piperidin-1-yl)pyrazin-2-yl)amino)pyridin-4-yl)-2-methylpropanoic Acid] |
| 3.5 | CCOc1ccccc1O[C@@H]1CCCN(c2nccc(Nc3cccc(-c4cccc(CC(C)(C)C(=O)O)c4)n3)n2)C1 [Example 66, (R)-3-(3-(6-((2-(3-(2-ethoxyphenoxy)piperidin-1-yl)pyrimidin-4-yl)amino)pyridin-2-yl)phenyl)-2,2-dimethylpropanoic Acid] |
| 1.7 | CCOc1ccccc1O[C@@H]1CCCN(c2cncc(Nc3ccc(-c4ccccc4)cn3)n2)C1 [Example 40, (R)-6-(3-(2-ethoxyphenoxy)piperidin-1-yl)-N-(5-phenylpyridin-2-yl)pyrazin-2-amine] |
| 2.7 | CCOc1ccccc1O[C@@H]1CCCN(c2cncc(Nc3cc(CC(C)(C)C(=O)O)ccn3)n2)C1 [Example 39, (R)-3-(2-((6-(3-(2-ethoxyphenoxy)piperidin-1-yl)pyrazin-2-yl)amino)pyridin-4-yl)-2,2-dimethylpropanoic Acid] |
